Assay results as given in patent US9783534B2 (priority 2013, dated 2017).
Read-outs that look alike come from different tables or passages of the source.

Experiments:
[1] = system: Phytophthora infestans; format: in vivo; settings: tomato, protective, 50 g a.i./liter SC formulation, evaluation 3 days after inoculation
[2] = system: Plasmopara viticola; test: Plasmopara test (vine)/protective; format: in vivo; settings: protective, 50 g a.i./liter SC formulation, evaluation 6 days after inoculation
From the text: To produce a suitable active ingredient preparation, formulations are suspended with water and diluted to the desired concentration. In the present case, both the known amorphous modification of the substance 2-{3-[2-(1-{[3,5-bis(difluoromethyl)-1H-pyrazol-1-yl]acetyl}piperidin-4-yl)-1,3-thiazol-4-yl]-4,5-dihydro-1,2-oxazol-5-yl}-3-chlorophenylmethanesulphonate (form A), as well as the inventive crystalline form of the substance 2-{3-[2-(1-{[3,5-bis(difluoromethyl)-1H-pyrazol-1-yl]acetyl}piperidin-4-yl)-1,3-thiazol-4-yl]-4,5-dihydro-1,2-oxazol-5-yl}-3-chlorophenylmethanesulphonate (form B) are used as 50 g a.i./liter of SC formulation.
To test for protective effectiveness, young plants are sprayed with the active ingredient preparation at the stated application rate. After initial drying of the spray coating, the plants are inoculated with an aqueous spore suspension of Plasmopara viticola and then remain in an incubation cabin for 1 day at approx. 20° C. and 100% relative atmospheric humidity. The plants are then placed in a greenhouse at approx. 21° C. and approx. 90% atmospheric humidity for 4 days. The plants are then moistened and placed in an incubation cabin for 1 day.
Evaluation is carried out 6 days after the inoculation. 0% here means an efficacy which corresponds to that of the control, whereas an efficacy of 100% means that no infection is observed.

[3] = Stability of the solid form on storage; format: physicochemical; settings: prolonged storage
[4] = application rate 0.05 ppm active ingredient
[5] = application rate 0.1 ppm active ingredient
[6] = application rate 0.2 ppm active ingredient

Compound | Efficacy in % [1, 4] [%] | Efficacy in % [1, 5] [%] | Efficacy in % [1, 6] [%] | Efficacy in % [2, 4] [%] | Efficacy in % [2, 5] [%] | Efficacy in % [2, 6] [%] | thermodynamic stability / conversion into another form [3]
CS(=O)(=O)Oc1cccc(Cl)c1C1CC(c2csc(C3CCN(C(=O)Cn4nc(C(F)F)cc4C(F)F)CC3)n2)=NO1 (single isomer, unassigned) [Form A, 2-{3-[2-(1-{[3,5-bis(difluoromethyl)-1H-pyrazol-1-yl]acetyl}piperidin-4-yl)-1,3-thiazol-4-yl]-4,5-dihydro-1,2-oxazol-5-yl}-3-chlorophenylmethanesulphonate, reference compound] | 0 | 15 | 40 | 0 | 6 | 35 | 
CS(=O)(=O)Oc1cccc(Cl)c1C1CC(c2csc(C3CCN(C(=O)Cn4nc(C(F)F)cc4C(F)F)CC3)n2)=NO1 (single isomer, unassigned) [Form B, 2-{3-[2-(1-{[3,5-bis(difluoromethyl)-1H-pyrazol-1-yl]acetyl}piperidin-4-yl)-1,3-thiazol-4-yl]-4,5-dihydro-1,2-oxazol-5-yl}-3-chlorophenylmethanesulphonate] | 40 | 60 | 76 | 0 | 35 | 75 | not converted into another form even on prolonged storage
